{"source": "patent US20140227174A1", "about": "“SKIN PERMEATING AND CELL ENTERING (SPACE) PEPTIDES AND METHODS OF USE THEREFOR” (CONVOY THERAPEUTICS, priority 2013, published 2014)", "assay_type_in_all_cases": "in vitro ADME", "key": {"Full thickness pig skin [1]": {"system": "Full thickness pig skin", "assay": "In vitro delivery of siRNA to skin in Franz diffusion cells", "conditions": "100 microliters of 25 nmole/ml; area of 2 sq. cm; 24 hours", "procedure": "Full thickness pig skin (Lampire Biological Laboratories, Pipersville, Pa.) was used. The skin was stored at −80° C. and defrosted immediately prior to use. Briefly, the skin was allowed to thaw with the stratum corneum side up left open to the atmosphere for at least half hour. Skin disks of 36 mm were punched out. The subcutaneous fatty tissue was carefully removed from the dermis, and the hair shaft was cut off to no more than 4 mm. The skin piece was cleaned with PBS (pH 7.4). […]\nIn vitro skin penetration and deposition experiments of different formulations were run in Franz diffusion cells occlusively and maintained at 37±1° C. throughout the experiments. […] At the end of an experiment, a sample of 1 ml was withdrawn from the receptor phase for concentration measurement by fluorescence assay using a micro-plate reader (SAFIRE, XFLUOR4, V4.50, Tecan Group Ltd, NY, US). […]\nThe stratum corneum was removed by striping with an adhesive tape (SCOTCH® Transparent Tape, 3M Corporate, St. Paul, Minn.). […] The supernatant were withdrawn, diluted if necessary and analyzed by fluorescence measurement.\nThe concentrations of FAM-GAPDH-siRNA and FAM-GAPDH-siRNA-SPACE-Peptide conjugates were determined by fluorescence spectroscopy. Fluorescence detection was performed at an excitation of 495 nm and an emission of 525 nm for both conjugates. […]"}, "EPIDERM™ tissue": {"system": "EPIDERM™ tissue", "assay": "Penetration of SPACE Peptide formulations across EPIDERM tissue", "conditions": "100 μl on 2 cm^2, 24 hours", "procedure": "Additional experiments performed using EPIDERM™ tissue confirmed penetration of SPACE Peptide across the skin. For this purpose, the SPACE Peptide formulations were prepared using the methods described herein above. EPIDERM™ tissues were obtained from MatTek Corporation (Ashland, Mass.). […] A 100 microliter formulation applied on EPIDERM™ tissue for 24 hours was determined to deliver 25% of SPACE Peptide across EPIDERM™ tissue.\nFIG. 8C is a bar graph showing delivery of a fluorescent label to EPIDERM™ (left column of each pair) and a pig skin model (right column of each pair) using different formulations the contain SPACE Peptides. A 100 μl sample of various formulations was placed on a 2 cm^2 skin sample and penetration was tested 24 hours after application."}, "[2]": {"system": "epidermis and dermis from porcine skin", "assay": "Partitioning of SPACE Peptide into isolated epidermis and dermis", "conditions": "ratio of concentrations in skin layer and surrounding PBS; aqueous solution of SPACE Peptide; after 24 hours", "procedure": "FIG. 5 is a schematic representation of the measurement of partitioning of SPACE peptide. FITC-SPACE peptide was incubated epidermis-SC and dermis for […] at 37° C. and the amount of SPACE peptide partitioned into the tissue was measured.\nIn these experiments, epidermis and dermis from porcine skin were isolated and placed in separate vials in an aqueous solution of SPACE Peptide of SEQ ID NO: 13. The amount of SPACE Peptide that partitioned into each skin layer was measured after 24 hours. The ratio of concentrations in skin layers and surrounding PBS was used to determine the partition coefficient."}, "Full thickness pig skin [3]": {"system": "Full thickness pig skin", "procedure": "Full thickness pig skin (Lampire Biological Laboratories, Pipersville, Pa.) was used. The skin was stored at −80° C. and defrosted immediately prior to use. Briefly, the skin was allowed to thaw with the stratum corneum (SC) side up left open to the atmosphere. Skin disks of 36 mm were punched out. The subcutaneous fatty tissue was carefully removed from the dermis, and the hair shaft was clipped to no more than 4 mm. The skin pieces were cleaned with PBS (pH 7.4). Subsequently, the integrity of the skin disks were checked with a skin conductivity measurement to ensure that samples were free from any surface irregularity such as tiny holes or crevices in the portion that was used for skin penetration and deposition studies.\nIn vitro skin penetration and deposition experiments of different liposomal systems containing a SPACE Peptide labeled with fluorescein isothiocyanate (FITC-SPACE), CsA, or fluorescent hyaluronidase (Fluorescein-HA) were run in Franz diffusion cells occlusively and maintained at 37±1° C. throughout experiments using an oven. The effective penetration area and receptor cell volume were 1.77 cm^2 and 12.0 ml, respectively. The acceptor compartment was filled with PBS pH 7.4 as the receptor medium. Each test formulation was investigated in triplicate. Skin disks were mounted with the SC side up and the donor compartment left dry and open to atmosphere for 0.5 hour before test formulation application. Caution was taken to remove all air bubbles between the underside of the skin (dermis) and the acceptor solution. The skin was stretched in all directions to avoid the presence of furrows.\n100-200 μL of the test formulation was applied to skin surface using a pipette. The experiments were carried out under occlusion with light protection. The incubation time of the skin with each test formulation was 24 hours. At the end of an experiment, a sample of 1-3 mL was withdrawn from the receptor phase for concentration measurement by fluorescence assay using a micro-plate reader (SAFIRE, XFLUOR4, V4.50, Tecan Group Ltd, NY, United States of America) for fluorescence. In the case of CsA experiments, a sample of 3 ml was withdrawn from the receptor phase for ^3H-CsA measurement by a liquid scintillation counter (TRI-GARB 2100TR, Packard Instrument Company, Downers Grove, Ill.). The formulations were removed from the skin by washing five times with PBS (pH 7.4). After cleaning, the skin was transferred onto a device for tape-stripping the SC.\nThe stratum corneum was removed by striping with an adhesive tape (SCOTCH® Transparent Tape, 3M Corporate, St. Paul, Minn.). In order to avoid any furrows, which could be a reason for false results of the stripping procedure, the skin was stretched and mounted on cork discs as mentioned previously. The skin was covered with a TEFLON® mask with a central hole of 15 mm in diameter. Adhesive tape was put onto the skin and a weight of 2 kg was placed on the tape for 10 seconds. The tape was rapidly removed with forceps and transferred into a glass vial of suitable size. Ten stripping procedures were performed consecutively. For analytical reasons, the stripped tapes were collected in glass vials according the following scheme: vial 1=strip 1st, vial 2=strip 2nd-5th, and vial 3=strip 6th-10th. After tape-stripping, the epidermis sheet was separated from the dermis with a sterile surgical scalpel and cut into small pieces and collected into a glass vial. […]"}}, "note": "Residues, ends and D or L forms follow the SMILES beside them.", "data": [{"molecule": "5′-FAM-GACGUAAACGGCCACAAGUUC-3′ [siRNA aqueous solution]", "values": [{"measurement": "penetration of siRNA into skin (applied dose)", "setting": "Full thickness pig skin [1]", "result": 3.3, "unit": "%"}]}, {"molecule": "C[C@H](NC(=O)CCCCCNC(=S)Nc1ccc2c(c1)C(=O)OC21c2ccc(O)cc2Oc2cc(O)ccc21)C(=O)N[C@H]1CSSC[C@@H](C(=O)NCC(=O)O)NC(=O)[C@H](CCC(N)=O)NC(=O)[C@H](Cc2c[nH]cn2)NC(=O)[C@H](CCC(N)=O)NC(=O)[C@H]([C@@H](C)O)NC(=O)[C@H](CO)NC(=O)CNC(=O)[C@H]([C@@H](C)O)NC1=O", "note": "[FITC-SPACE] (HELM PEPTIDE1{[O=C1OC2(c3ccc(O)cc3Oc3cc(O)ccc32)c2ccc(NC(=S)[*:2])cc21].[O=C(CCCCCN[*:1])[*:2]].A.C.T.G.S.T.Q.H.Q.C.G}$PEPTIDE1,PEPTIDE1,4:R3-12:R3$$$V2.0; C-terminus assumed)", "values": [{"measurement": "penetration into EPIDERM tissue (FIG. 8C)", "setting": "EPIDERM™ tissue", "result": "penetrated into the EPIDERM™ tissue"}]}, {"molecule": "C[C@H](N)C(=O)N[C@H]1CSSC[C@@H](C(=O)NCC(=O)O)NC(=O)[C@H](CCC(N)=O)NC(=O)[C@H](Cc2c[nH]cn2)NC(=O)[C@H](CCC(N)=O)NC(=O)[C@H]([C@@H](C)O)NC(=O)[C@H](CO)NC(=O)CNC(=O)[C@H]([C@@H](C)O)NC1=O", "note": "[SPACE Peptide] (HELM PEPTIDE1{A.C.T.G.S.T.Q.H.Q.C.G}$PEPTIDE1,PEPTIDE1,2:R3-10:R3$$$V2.0; N-terminus and C-terminus assumed)", "values": [{"measurement": "partition coefficient in the dermis", "setting": "[2]", "result": 4.3}, {"measurement": "partition coefficient in the epidermis", "setting": "[2]", "result": 9.8}, {"measurement": "penetration of FITC label into skin layers (summary of FIG. 8B)", "setting": "Full thickness pig skin [3]", "result": "enhanced penetration of FITC-SPACE Peptide formulations"}]}, {"molecule": "Hyaluronic acid [HA]", "values": [{"measurement": "HA delivery in the epidermis", "setting": "Full thickness pig skin [3]", "result": "less than 0.5 microgram per sq. cm"}, {"measurement": "HA delivery, formulation made at pH 8 versus otherwise identical formulation at pH 4", "setting": "Full thickness pig skin [3]", "result": "delivered less HA"}, {"measurement": "amount of HA in the skin compared with the receiver compartment", "setting": "Full thickness pig skin [3]", "result": "significantly higher"}, {"measurement": "topically-applied HA penetrating into skin", "setting": "Full thickness pig skin [3]", "result": "about 17%"}]}]}
